Counter-ions that a name gives are not always drawn.
Tests used:
Assay type in all cases: in vivo
Male ICR mice [1] = assay: Tail suspension test (TST) in mice; conditions: oral once daily, 26 mg/kg
Excerpt: A major symptom of depression is decrease of motivational behaviors. In the TST model, the tail-suspended mice struggle in attempt to overcome the abnormal body positions, which is a motivational behavior. After a period of time, the mice started to show occasional immobility, representing a “despair” mental state. The immobility is regarded as “failure to adapt to stress” and can be served as an indicator of the level of depression. The effectiveness of anti-depression drugs could be derived by measuring the duration of immobility after the mice had been tail-suspended for a period of time. The model is sensitive to anti-depression drugs and is widely adopted as a means to screen such drugs. (Steru L, Chermat R, Thierry B, Simon P. 1985.)
(§1) Male ICR mice (26±2 g) were used. The mice were housed in polycarbonate cages. […]
(§2) The animals were deprived of food but not water for 1.5 h prior to drug administration of. […] The volume of the suspension administered was based on body weight measured immediately prior to each dose, respectively. […]
The tail suspension test was based on the method of Steru (Steru, et al., 1985). […] The duration of immobility time was recorded during the final 4 min interval of the test. […]
(§3) All data were expressed as mean±SEM, and analyzed using one-way analysis of variance (ANOVA). […]

Male ICR mice [2] = assay: Forced swimming test (FST) in mice; conditions: oral once daily, 26 mg/kg
Excerpt: A major symptom of depression is decrease of motivational behaviors. In the FST model, the mice were forced to swim in a restricted space. First, they struggle in attempt to escape, which is a motivational behavior. After a period of time, the mice started to show occasional immobility, representing a “despair” mental state. The immobility is regarded as “failure to adapt to stress” and can be served as an indicator of the level of depression. The effectiveness of anti-depression drugs could be derived by measuring the duration of immobility after the mice had been forced to swim for a period of time. The model is sensitive to anti-depression drugs and is widely adopted as a means to screen such drugs. (Porsolt et al., 1977)
as §1, §2
The studies were carried out on mice according to the method of Porsolt (Porsolt, et al., 1977). […] The duration of immobility time was measured during the final 4 min interval of the test. […]
as §3

CMS-treated rats = assay: Sucrose intake test in chronic mild stress (CMS) model; conditions: for sucrose intake: CMS-treated rats, 10 mg/kg oral daily
Excerpt: In the CMS model, rats are exposed sequentially, over a period of weeks, to a variety of mild stressors, and the measure most commonly used to track the effects is a decrease in consumption of a palatable sweet solution. This […] of antidepressants to increase sucrose intake in CMS model of rats. […] These impairments could be reversed by chronic administration of antidepressants such as tricyclic antidepressants, selective serotonin reuptake inhibitors and monoamine oxidase inhibitors. […] (Willner P. 1997)
Male Wistar rats, weighing 180-220 g at the start of the experiment, were used in the experiments. During the one week before experiment, each rat was housed individually in a home cage, and had free access to food and water. They were maintained on a 12 h light/dark cycle under controlled temperature 25±2° C. and tested in the light phase.
(§4) 3. Administration and Doses • Non CMS-treated Saline group: 10 ml/kg/day. • CMS-treated Saline group: 10 ml/kg/day. • Composition I (200) group: 200 mg/kg/day. • Composition I (150) group: 150 mg/kg/day. • Fluoxetine group (positive control): 10 mg/kg/day.
The above substances at various concentrations were dissolved in saline. The volume of the suspension administered was based on body weight measured immediately prior to each dose, respectively. All groups were administered orally for six weeks, once per day. All groups except for Non-CMS-treated saline group received CMS treatment as described below.
All animals were trained to consume 1% (w/v) sucrose solution in water. The training was conducted twice a week for consecutive 3 weeks. In the training, the rats in the home cage were deprived of food and water for 14 hours. After 14 hours, about 30 ml of 1% (w/v) sucrose solution in a pre-weighed bottled was placed in the home cages. 1 hour later, the bottle was taken out from the cage and weighed. The sucrose intake was calculated as follows: […]
Calculation: Weight of Bottle Before Intake (g)—Weight of Bottle After Intake (g)
After three weeks of training, when the sucrose intake of rats was stabilized, the rats started to receive further treatment. During the whole treatment period, the sucrose intakes of rats were monitored once every week from 9:00 a.m. to 10:00 a.m. with the same procedures as described above.
After the three-weeks training, the rats were randomly divided into two groups: the non-CMS treated group and CMS-treated group. The stress group of animals was subjected to the CMS procedure for a period of four consecutive weeks. Each week of stress regime is consisted of six different stress situations. They involved two periods of food and water deprivation, two periods of 45 o cage tilt, two periods of intermittent illumination (lights on and off every 2 h), two periods of soiled cage (200 mL water in sawdust bedding), two periods of paired housing, and two periods of low intensity stroboscopic illumination (150 flashes/min). All of the stressors were 12-14 h of duration and were applied individually and sequentially, day and night.
(§5) Animals therein were divided randomly into the following four subgroups: • (1) Composition I (200) group: received composition I at 200 mg/kg/day; • (2) Composition I (150) group: received composition I at 150 mg/kg/day; • (3) Fluoxetine group: received fluoxetine 10 mg/kg/day; (positive control); • (4) CMS-treated saline group: received saline 10 mL/kg/day. (negative control).
The rats in non-CMS treated group received saline solution at 10 mL/kg orally. All administrations were given orally once daily at 10:00 a.m. for consecutive 6 weeks.

brain MAO-A = target: T1, brain MAO-A (Rattus norvegicus, UniProt P21396); assay: Brain MAO-A activity in CMS-treated rats; conditions: brain of CMS-treated rats, 10 mg/kg oral daily for 6 weeks
T1 construct: Rat brain mitochondrial fractions were prepared; from tissue; host or cells: rat brain mitochondrial fraction
T1 sequence (P21396 1-526): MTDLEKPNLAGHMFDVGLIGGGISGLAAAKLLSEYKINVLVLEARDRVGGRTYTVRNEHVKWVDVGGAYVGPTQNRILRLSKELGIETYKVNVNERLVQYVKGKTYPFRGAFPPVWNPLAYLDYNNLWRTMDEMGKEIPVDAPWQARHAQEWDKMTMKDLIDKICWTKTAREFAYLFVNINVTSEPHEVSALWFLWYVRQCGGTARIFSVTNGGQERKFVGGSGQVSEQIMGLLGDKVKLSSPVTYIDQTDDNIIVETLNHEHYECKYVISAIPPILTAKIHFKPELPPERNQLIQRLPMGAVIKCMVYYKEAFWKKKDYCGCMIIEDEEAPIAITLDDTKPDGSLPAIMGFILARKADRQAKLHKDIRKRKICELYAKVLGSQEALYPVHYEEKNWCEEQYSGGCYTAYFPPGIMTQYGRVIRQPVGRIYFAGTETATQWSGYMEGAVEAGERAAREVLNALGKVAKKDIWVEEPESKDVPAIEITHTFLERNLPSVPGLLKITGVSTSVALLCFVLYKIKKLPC
Protocol: as §4, §5
(§6) 24 h after the last test of sucrose intake, between 10:00 a.m. and 11:00 a.m., all animals were decapitated quickly to get venous blood. Serum was separated by centrifugation at 3000 rpm and stored at −20° C. until assay of cortisol concentration. Brain tissues were rapidly removed on the ice-plate. The tissues were washed with cold saline, blotted dry and stored at −80° C. until assays of monoamine oxidase A and B (MAO-A and MAO-B) activity.
(§7) Rat brain mitochondrial fractions were prepared following the procedure described in Schurr and Livne, 1976. MAO activity was assessed by spectrophotometer as described in Yu et al., 2002. […] The organic phase was measured at wavelength of 280 nm and 242 nm for MAO-A and MAO-B assay with spectrophotometer, respectively. […]

brain MAO-B = target: T2, brain MAO-B (Rattus norvegicus, UniProt P19643); assay: Brain MAO-B activity in CMS-treated rats; conditions: brain of CMS-treated rats, 10 mg/kg oral daily for 6 weeks
T2 construct: Rat brain mitochondrial fractions were prepared; from tissue; host or cells: rat brain mitochondrial fraction
T2 sequence (P19643 1-520): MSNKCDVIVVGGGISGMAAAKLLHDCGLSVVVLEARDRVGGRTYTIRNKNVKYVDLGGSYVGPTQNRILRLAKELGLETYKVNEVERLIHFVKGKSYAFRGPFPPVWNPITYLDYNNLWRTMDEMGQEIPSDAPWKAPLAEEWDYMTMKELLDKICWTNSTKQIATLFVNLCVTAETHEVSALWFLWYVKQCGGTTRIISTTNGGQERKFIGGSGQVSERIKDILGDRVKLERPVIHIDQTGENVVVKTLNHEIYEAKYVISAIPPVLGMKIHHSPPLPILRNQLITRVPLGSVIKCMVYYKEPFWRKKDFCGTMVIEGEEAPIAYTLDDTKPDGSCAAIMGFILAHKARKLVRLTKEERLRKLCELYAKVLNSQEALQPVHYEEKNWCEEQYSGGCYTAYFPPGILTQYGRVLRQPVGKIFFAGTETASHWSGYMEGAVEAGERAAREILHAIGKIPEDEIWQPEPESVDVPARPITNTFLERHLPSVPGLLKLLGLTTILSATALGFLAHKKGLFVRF
Protocol: as §4, §5, §6, §7

serum cortisol = assay: Serum cortisol level in CMS-treated rats (radioimmunoassay)
Protocol: as §4, §5, §6
Serum cortisol level was assayed using a radioimmunoassay method following the manufacturer's instructions. (Manufacturer: Bejing Furui Biotechnology Company, P.R. China. Product code: FR-FJ-055).

Compound: CNCCC(Oc1ccc(C(F)(F)F)cc1)c1ccccc1 (stereo not drawn) [Fluoxetine, Fluoxetine Hydrochloride]
- Duration of immobility (Male ICR mice [1]; 3 days): 23.2 ± 5.2 s
- Duration of immobility (Male ICR mice [1]; 7 days): 28.8 ± 6.4 s
- Duration of immobility (Male ICR mice [2]; 3 days): 67.6 ± 10.2 s
- Duration of immobility (Male ICR mice [2]; 7 days): 67.1 ± 8.9 s
- recovery of the sucrose intake (in words) (CMS-treated rats; CMS rats, fluoxetine-treated (10 mg/kg)): not as strong as those treated with Composition (I)
- sucrose intake (CMS-treated rats; week 0 of drug treatment): 5.3 ± 1.4 g
- sucrose intake (CMS-treated rats; week 1): 5.5 ± 1.3 g
- sucrose intake (CMS-treated rats; week 2): 5.9 ± 1.4 g
- sucrose intake (CMS-treated rats; week 3): 7.3 ± 1.5 g
- sucrose intake (CMS-treated rats; week 4): 8.9 ± 1.1 g
- sucrose intake (CMS-treated rats; week 5): 10.4 ± 1.3 g
- sucrose intake (CMS-treated rats; week 6): 13.9 ± 1.3 g
- MAO activity A (brain MAO-A): 78.05 ± 3.68 U/g protein
- inhibition at 10 mg/kg (brain MAO-A; rat): 16.4%
- MAO activity B (brain MAO-B): 54.50 ± 3.56 U/g protein
- inhibition at 10 mg/kg (brain MAO-B; rat): 54%
- effect on serum cortisol levels (in words) (serum cortisol; CMS-treated rats, fluoxetine (10 mg/kg)): did not cause any significant alteration
- Cortisol level (serum cortisol; serum of CMS-treated rats, 10 mg/kg oral daily for 6 weeks): 28.76 ± 0.56 ng/mL

From patent US20060147569A1, “Anti-depression formulations” (priority 2005, published 2006)
